Data as given in paper PMC13185819, “De Novo Multi‐Mechanism Antimicrobial Peptide Design via Multimodal Deep Learning” (Advanced Science, 2026).
Values after ≈ are worked out from the molar mass of the structure shown. Residues, ends and D or L forms follow the SMILES beside them.

Tests used:
Type in all cases: cell-based
[1] = test system: E. faecium 1042
Description: (§1) Standard strains included S. aureus ATCC33592, S. aureus CICC25138, and Salmonella enterica ATCC14028, which were purchased from the China Center of Industrial Culture Collection (CICC). Standard strains including E.coli CMCC44102, Salmonella enterica CMCC50071, and S. aureus CMCC26003 were purchased from the National Center for Medical Culture Collections (CMCC). […] All experiments using the above strains were carried out in a BSL‐2 laboratory. The clinical laboratory of Qilu Hospital detected bacterial resistance to various antibiotics. All strains were streaked on Nutrient Broth (NB) agar medium and incubated overnight at 37°C.
(§2) The antimicrobial activity of the peptides was examined in sterile 96‐well plates using the broth microdilution according to the CLSI standard. The colonies were suspended in saline solution, the turbidity was adjusted to McFarland 0.5 to reach a bacterial concentration of 10^8 CFU/mL, and again diluted 100 times for the inhibition test. Then, 50 µL of bacterial suspension at 1 × 10^6 CFU/mL was incubated with the same volume of different concentrations of peptide solution [serial twofold dilutions in Mueller–Hinton Broth (Hopebio)]. […] All experiments were performed with three independent replicates.

[2] = test system: P. aeruginosa 112
Description: as §1, §2

[3] = test system: S. aureus 129
Description: as §1, §2

[4] = test system: K. pneumoniae 7713
Description: as §1, §2

[5] = test system: S. aureus ATCC33592
Description: as §1, §2

[6] = test system: P. aeruginosa 116
Description: as §1, §2

[7] = test system: E. faecium 21
Description: as §1, §2

[8] = test system: E.coli 110
Description: as §1, §2

[9] = test system: S. aureus 103
Description: as §1, §2

[10] = test system: E.coli 208
Description: as §1, §2

[11] = test system: S. aureus CICC25138
Description: as §1, §2

[12] = test system: P. aeruginosa 119
Description: as §1, §2

| SMILES | MIC (μg/mL) E. faecium 1042 [1] [µg/mL] | MIC (μg/mL) P. aeruginosa 112 [2] [µg/mL] | MIC (μg/mL) S. aureus 129 [3] [µg/mL] | MIC (μg/mL) K. pneumoniae 7713 [4] [µg/mL] | MIC (μg/mL) S. aureus ATCC33592 [5] [µg/mL] | MIC (μg/mL) P. aeruginosa 116 [6] [µg/mL] | MIC (μg/mL) E. faecium 21 [7] [µg/mL] | MIC (μg/mL) E.coli 110 [8] [µg/mL] | MIC (μg/mL) S. aureus 103 [9] [µg/mL] | MIC (μg/mL) E.coli 208 [10] [µg/mL] | MIC (μg/mL) S. aureus CICC25138 [11] [µg/mL] | MIC (μg/mL) P. aeruginosa 119 [12] [µg/mL] |
| --- | --- | --- | --- | --- | --- | --- | --- | --- | --- | --- | --- | --- |
| CC[C@H](C)[C@H](NC(=O)[C@H](CCCCN)NC(=O)[C@H](Cc1c[nH]c2ccccc12)NC(=O)[C@@H](N)CCCCN)C(=O)N[C@@H](CCCCN)C(=O)N[C@@H](Cc1c[nH]c2ccccc12)C(=O)N1CCC[C@H]1C(=O)N[C@@H](CO)C(=O)N[C@@H](CC(N)=O)C(=O)N[C@@H](Cc1c[nH]c2ccccc12)C(=O)N[C@@H](Cc1ccccc1)C(=O)N[C@H](C(=O)N[C@@H](CCCCN)C(=O)N[C@@H](CC(C)C)C(N)=O)[C@@H](C)O [QLX-3DV-3] (H-KWKIKWPSNWFTKL-NH2) | 8 (≈ 4.3 µM) | 32 (≈ 17.2 µM) | 64 (≈ 34.4 µM) | 16 (≈ 8.6 µM) | 32 (≈ 17.2 µM) | 16 (≈ 8.6 µM) | 8 (≈ 4.3 µM) | 16 (≈ 8.6 µM) | 32 (≈ 17.2 µM) | 8 (≈ 4.3 µM) | 32 (≈ 17.2 µM) | 32 (≈ 17.2 µM) |
| CC[C@H](C)[C@H](NC(=O)[C@H](CCCCN)NC(=O)[C@H](Cc1c[nH]c2ccccc12)NC(=O)[C@@H](N)CCCCN)C(=O)N[C@@H](CCCCN)C(=O)N[C@@H](Cc1c[nH]c2ccccc12)C(=O)N1CCC[C@H]1C(=O)N[C@@H](CO)C(=O)N[C@@H](CCCNC(=N)N)C(=O)N[C@@H](Cc1c[nH]c2ccccc12)C(=O)N[C@@H](Cc1ccccc1)C(=O)N[C@H](C(=O)N[C@@H](CCCCN)C(=O)N[C@@H](CC(C)C)C(N)=O)[C@@H](C)O [QLX-3DV-4] (H-KWKIKWPSRWFTKL-NH2) | 16 (≈ 8.41 µM) | 32 (≈ 16.8 µM) | 32 (≈ 16.8 µM) | 16 (≈ 8.41 µM) | 32 (≈ 16.8 µM) | 32 (≈ 16.8 µM) | 8 (≈ 4.2 µM) | 32 (≈ 16.8 µM) | 16 (≈ 8.41 µM) | 16 (≈ 8.41 µM) | 16 (≈ 8.41 µM) | 32 (≈ 16.8 µM) |
| CC[C@H](C)[C@H](NC(=O)[C@H](CCCCN)NC(=O)[C@H](Cc1c[nH]c2ccccc12)NC(=O)[C@@H](N)CCCCN)C(=O)N[C@@H](CCCCN)C(=O)N[C@@H](CCCNC(=N)N)C(=O)N1CCC[C@H]1C(=O)N[C@H](C(=O)N[C@@H](CCCCN)C(=O)N[C@@H](Cc1c[nH]c2ccccc12)C(=O)N[C@@H](Cc1ccccc1)C(=O)N[C@H](C(=O)N[C@@H](CCSC)C(=O)N[C@@H](CC(C)C)C(N)=O)[C@@H](C)O)C(C)C [QLX-3DV-5] (H-KWKIKRPVKWFTML-NH2) | 32 (≈ 17.2 µM) | 16 (≈ 8.6 µM) | 128 (≈ 68.8 µM) | 8 (≈ 4.3 µM) | 64 (≈ 34.4 µM) | 128 (≈ 68.8 µM) | 8 (≈ 4.3 µM) | 8 (≈ 4.3 µM) | 32 (≈ 17.2 µM) | 8 (≈ 4.3 µM) | 64 (≈ 34.4 µM) | 64 (≈ 34.4 µM) |
| CC[C@H](C)[C@H](NC(=O)[C@H](CCCCN)NC(=O)[C@H](Cc1c[nH]c2ccccc12)NC(=O)[C@@H](N)CCCCN)C(=O)N[C@@H](CCCCN)C(=O)N[C@@H](CCC(N)=O)C(=O)N[C@@H](Cc1c[nH]c2ccccc12)C(=O)N[C@H](C(=O)N[C@@H](CCCNC(=N)N)C(=O)N[C@@H](Cc1c[nH]c2ccccc12)C(=O)N[C@@H](Cc1ccccc1)C(=O)N[C@@H](CCCNC(=N)N)C(=O)N[C@@H](CCCCN)C(=O)N[C@@H](CC(C)C)C(N)=O)C(C)C [QLX-3DV-6] (H-KWKIKQWVRWFRKL-NH2) | 8 (≈ 4 µM) | 32 (≈ 16 µM) | 16 (≈ 7.99 µM) | 16 (≈ 7.99 µM) | 16 (≈ 7.99 µM) | 16 (≈ 7.99 µM) | 8 (≈ 4 µM) | 8 (≈ 4 µM) | 16 (≈ 7.99 µM) | 4 (≈ 2 µM) | 16 (≈ 7.99 µM) | 128 (≈ 64 µM) |
| CC[C@H](C)[C@H](NC(=O)[C@H](CCCCN)NC(=O)[C@H](CCCNC(=N)N)NC(=O)[C@@H](N)CCCCN)C(=O)N[C@@H](CCCCN)C(=O)N[C@@H](Cc1c[nH]c2ccccc12)C(=O)N[C@@H](CCCCN)C(=O)N[C@H](C(=O)N[C@@H](CCCNC(=N)N)C(=O)N[C@@H](Cc1c[nH]c2ccccc12)C(=O)N[C@@H](Cc1ccccc1)C(=O)N[C@H](C(=O)N[C@@H](Cc1ccc(O)cc1)C(=O)N[C@@H](CC(C)C)C(N)=O)[C@@H](C)O)C(C)C [QLX-3DV-7] (H-KRKIKWKVRWFTYL-NH2) | 8 (≈ 4.1 µM) | 32 (≈ 16.4 µM) | 16 (≈ 8.2 µM) | 16 (≈ 8.2 µM) | 16 (≈ 8.2 µM) | 8 (≈ 4.1 µM) | 8 (≈ 4.1 µM) | 16 (≈ 8.2 µM) | 16 (≈ 8.2 µM) | 32 (≈ 16.4 µM) | 16 (≈ 8.2 µM) | 64 (≈ 32.8 µM) |
| CC[C@H](C)[C@H](NC(=O)[C@H](CCCCN)NC(=O)[C@H](CCCNC(=N)N)NC(=O)[C@@H](N)CCCCN)C(=O)N[C@@H](CCCCN)C(=O)N[C@@H](Cc1c[nH]c2ccccc12)C(=O)N[C@@H](Cc1c[nH]c2ccccc12)C(=O)N[C@H](C(=O)N[C@@H](CCCNC(=N)N)C(=O)N[C@@H](Cc1c[nH]c2ccccc12)C(=O)N[C@H](C(=O)N[C@H](C(=O)N[C@@H](CCCCN)C(=O)N[C@@H](CC(C)C)C(N)=O)[C@@H](C)O)[C@@H](C)CC)C(C)C [QLX-3DV-8] (H-KRKIKWWVRWITKL-NH2) | 8 (≈ 4.12 µM) | 16 (≈ 8.25 µM) | 8 (≈ 4.12 µM) | 8 (≈ 4.12 µM) | – | 8 (≈ 4.12 µM) | 4 (≈ 2.06 µM) | – | 8 (≈ 4.12 µM) | – | 16 (≈ 8.25 µM) | 32 (≈ 16.5 µM) |
| CC[C@H](C)[C@H](NC(=O)[C@H](CCCCN)NC(=O)[C@H](Cc1c[nH]c2ccccc12)NC(=O)[C@@H](N)CCCCN)C(=O)N[C@@H](CCCCN)C(=O)N[C@@H](Cc1c[nH]c2ccccc12)C(=O)N[C@@H](CCCNC(=N)N)C(=O)N[C@H](C(=O)N[C@@H](CCCNC(=N)N)C(=O)N[C@@H](Cc1c[nH]c2ccccc12)C(=O)N[C@@H](Cc1ccccc1)C(=O)N[C@@H](CCCCN)C(=O)N[C@@H](CC(C)C)C(=O)N[C@@H](CC(C)C)C(N)=O)C(C)C [QLX-3DV-9] (H-KWKIKWRVRWFKLL-NH2) | 2 (≈ 1.01 µM) | 16 (≈ 8.05 µM) | 8 (≈ 4.03 µM) | 16 (≈ 8.05 µM) | 16 (≈ 8.05 µM) | 4 (≈ 2.01 µM) | 2 (≈ 1.01 µM) | 8 (≈ 4.03 µM) | 8 (≈ 4.03 µM) | 16 (≈ 8.05 µM) | 8 (≈ 4.03 µM) | 16 (≈ 8.05 µM) |
